# Measurements from patent US20250320228A1, “PYRIDO[3,2-D]PYRIMIDINES AS HPK1 INHIBITORS” (Merck Patent GmbH, priority 2022, published 2025).
# pIC50: −log10 of the molar value. Counter-ions that a name gives are not always drawn.
# Experiments:
# HPK1 pSLP76 (Ser376) = assay: Cellular assay phospho-SLP-76 (Ser376); type: cell-based, human; details: SLP76 Ser376 phosphorylation after αCD3/αCD28 stimulation; Jurkat (human) or EL-4 (mouse) cells, table does not say which; read-out: HPK1 pSLP76 IC50
# Protocol: Cellular Assay—Phospho-SLP-76 (Ser376).
# Inhibition of HPK1 enzymatic activity in cells was determined by detection of SLP76 phosphorylation at Ser376 residue in lysate from Jurkat (human) and EL-4 (mouse) cells. Jurkat and EL-4 cells express both HPK1 and SLP76 naturally. All cells were cultured in RPMI 1640 media containing 10% heat inactivated fetal bovine serum (FBS) and 1× Penicillin-Streptomycin. In either Jurkat or El-4 assay, cells were pre-incubated with test compounds prior to T cell stimulation by respective αCD3/αCD28 Dynabeads™. For detection, plates were read on the Envision and percent inhibition and IC50 were determined by Smart fit in Genedata Analyzer.
# For Jurkat cells: 35 μL cell suspension were dispensed at a density of 30,000 cells/well in 384-well plates containing HBSS (Gibco, 14025076)+0.1% BSA). 10-point logarithmic serial dilution of test compounds in DMSO were prepared by a Hamilton automated liquid handling robot and 35 nL was transferred into each well by an Echo liquid handler. After 60 min. pre-incubation, the cells were stimulated by adding 5 μL human T activator αCD3/αCD28 Dynabeads™ (Gibco, 11132D) at 1.2×107 beads/ml for 15 minutes at 37° C. Detection of Ser376 phosphorylation status was accomplished by first adding 10 μL of 5× AlphaLISA lysis buffer (Perkin Elmer, ALSU-PSLP-A500) to each well of the cell plate using a Multidrop Combi (5840300), followed by 20 minutes shaking. 10 μL cell lysate from each treatment were then transferred to a white 384-well plate (Corning 3572) and incubated with AlphaLISA acceptor beads for one hour (AlphaLISA SureFire Ultra p-SLP76 (Ser376), Perkin Elmer, ALSU-PSLP-A500), and donor beads for additional 2 hours at room temperature in the dark. […]
# [1] = target: full-length human HPK1 (MAP4K1) (Homo sapiens (Human), UniProt Q92918); assay: HPK1 kinase assay (biochemical, ADP-Glo); details: GST-HPK1 3.2 nM, 10 μM ATP, MBP substrate, ADP-Glo; read-out: HPK1 enzymatic IC50
# Chain of full-length human HPK1 (MAP4K1) (Q92918 whole entry): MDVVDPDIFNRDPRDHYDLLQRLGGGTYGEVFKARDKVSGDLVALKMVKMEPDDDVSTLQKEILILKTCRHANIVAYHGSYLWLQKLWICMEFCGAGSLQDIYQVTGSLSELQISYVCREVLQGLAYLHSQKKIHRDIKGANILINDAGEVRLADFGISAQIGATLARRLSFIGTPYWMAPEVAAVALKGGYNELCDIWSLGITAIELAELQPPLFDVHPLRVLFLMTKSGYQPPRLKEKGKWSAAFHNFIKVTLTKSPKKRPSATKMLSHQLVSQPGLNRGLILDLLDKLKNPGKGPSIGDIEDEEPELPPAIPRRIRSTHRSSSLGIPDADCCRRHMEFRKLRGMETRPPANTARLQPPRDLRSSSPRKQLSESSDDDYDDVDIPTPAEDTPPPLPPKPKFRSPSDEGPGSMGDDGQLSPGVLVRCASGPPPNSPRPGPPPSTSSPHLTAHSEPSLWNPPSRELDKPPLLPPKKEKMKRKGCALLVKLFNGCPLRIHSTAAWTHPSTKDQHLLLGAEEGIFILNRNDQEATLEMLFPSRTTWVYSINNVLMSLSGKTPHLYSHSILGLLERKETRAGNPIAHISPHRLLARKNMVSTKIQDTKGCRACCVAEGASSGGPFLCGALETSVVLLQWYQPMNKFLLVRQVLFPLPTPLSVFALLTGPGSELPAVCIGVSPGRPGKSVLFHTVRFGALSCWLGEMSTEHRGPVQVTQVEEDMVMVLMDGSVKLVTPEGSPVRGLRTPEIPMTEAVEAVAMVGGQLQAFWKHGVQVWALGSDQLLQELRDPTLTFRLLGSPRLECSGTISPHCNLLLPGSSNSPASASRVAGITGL
# From the text: HPK1 kinase assay (Biochemical assay).
# A recombinant fusion protein consisting of full-length human HPK1 (MAP4K1) with an N-terminal Glutatione S-transferase (GST) tag was produced in insect cells Sf21 using the baculovirus expression system. GST-HPK1 protein was purified from cell lysates by glutathione Sepharose affinity chromatography. The assay is run in three continuous steps: 1) the HPK1 enzymatic kinase reaction, 2) an ATP depletion, and 3) the ADP detection, the steps 2 and 3 are performed with ADP-Glo™ Kinase Assay kit from Promega (V9101). Test compounds were prepared by 10-point serial dilution in dimethyl sulfoxide (DMSO) and 100 nL of each dilution was spotted onto a 384-well Optiplate (Perkin Elmer and Cat #6007299) by Labcyte Echo. 5 μL kinase reaction buffer (0.02% Brij-35, 2 mM DTT, 50 mM HEPES pH 7.5, MgCl2 10 mM, BSA 0.01% and β-glycerophosphate 12.5 mM) containing HPK1 (3.2 nM) enzyme was transferred to each well and incubated for 15 minutes at room temperature at 60% humidity. The enzymatic reaction was started by adding 5 μl of Start-Mix (10 μM ATP and 3.235 μM MBP). After 120 minutes, the reaction was stopped by adding 5 μL of ADP-Glo reagent (Promega, V9101) and incubating for 40 min. in the dark at 23° C. To determine the level of ADP, 10 μl ADP-Glo Detection solution was added and incubated for 1 hour at 23° C. in the dark. The plate was transferred to a Perkin Elmer EnVision (2104 Multilabel Reader) for luminescence detection and percent inhibition activity and IC50 value were determined using Genedata Screener.
Structure (SMILES),pIC50 (HPK1 pSLP76 (Ser376)),pIC50 [1]
"COCCOc1ccc(-c2cc(C(N)=O)c3ncnc(N[C@H]4CCCNC4)c3n2)c(C#N)c1 [Example 46, (S)-6-(2-cyano-4-(2-methoxyethoxy)phenyl)-4-(piperidin-3-ylamino)pyrido[3,2-d]pyrimidine-8-carboxamide]",< 6.00,> 7.00
"NC(=O)c1cc(-c2ccc(CN3CC4CC(C3)O4)cc2)nc2c(N[C@H]3CCCNC3)ncnc12 [Example 63, 6-(4-[6-oxa-3-azabicyclo [3.1.1]heptan-3-ylmethyl]phenyl)-4-[(3S)-piperidin-3-ylamino]pyrido[3,2-d]pyrimidine-8-carboxamide]",> 6.30,> 7.00
"C[C@@H]1CN(Cc2ccc(-c3cc(C(N)=O)c4ncnc(N[C@H]5CCCNC5)c4n3)cc2)C[C@@H](C)O1 [Example 68, 6-(4-[[(2R,6R)-2,6-dimethylmorpholin-4-yl]methyl]phenyl)-4-[(3S)-piperidin-3-ylamino]pyrido[3,2-d]pyrimidine-8-carboxamide]",6.00 to 6.30,> 7.00
"COCCOc1ccc(-c2cc(C(N)=O)c3ncnc(N[C@H]4CNCC[C@@H]4F)c3n2)cc1 [Example 49, 4-(((3S,4S)-4-fluoropiperidin-3-yl)amino)-6-(4-(2-methoxyethoxy)phenyl)pyrido[3,2-d]pyrimidine-8-carboxamide]",< 6.00,< 6.00
"CC(C)(O)COc1ccc(-c2cc(C(N)=O)c3ncnc(N[C@@H]4CNCC[C@H]4F)c3n2)cc1 [Example 42, 4-(((3R,4R)-4-fluoropiperidin-3-yl)amino)-6-(4-(2-hydroxy-2-methylpropoxy)phenyl)pyrido[3,2-d]pyrimidine-8-carboxamide]",> 6.30,> 7.00
"NC(=O)c1cc(C2=CCC(N3CCOCC3)CC2)nc2c(N[C@H]3CCCNC3)ncnc12 (stereo partly drawn) [Example 17, 6-(4-morpholinocyclohex-1-en-1-yl)-4-(((S)-piperidin-3-yl)amino)pyrido[3,2-d]pyrimidine-8-carboxamide]",6.00 to 6.30,> 7.00
"CC(O)(C#N)COc1ccc(-c2cc(C(N)=O)c3ncnc(N[C@H]4CCCNC4)c3n2)cc1 (stereo partly drawn) [Example 40, 6-(4-(2-cyano-2-hydroxypropoxy)phenyl)-4-(((S)-piperidin-3-yl)amino)pyrido[3,2-d]pyrimidine-8-carboxamide]",< 6.00,> 7.00
"CS(=O)(=O)Cc1ccc(-c2cc(C(N)=O)c3ncnc(N[C@H]4CCCNC4)c3n2)cc1 [Example 54, (S)-6-(4-((methylsulfonyl)methyl)phenyl)-4-(piperidin-3-ylamino)pyrido[3,2-d]pyrimidine-8-carboxamide]",< 6.00,> 7.00
"NC(=O)c1cc(-c2ccc(CC3(F)CCOCC3)cc2)nc2c(N[C@H]3CCCNC3)ncnc12 [Example 44, (S)-6-(4-((4-fluorotetrahydro-2H-pyran-4-yl)methyl)phenyl)-4-(piperidin-3-ylamino)pyrido[3,2-d]pyrimidine-8-carboxamide]",> 6.30,> 7.00
"Cc1nn(C)cc1-c1cc(C(N)=O)c2ncnc(N[C@H]3CCCNC3)c2n1 [Example 79, 6-(1,3-dimethyl-1H-pyrazol-4-yl)-4-{[(3S)-piperidin-3-yl]amino}pyrido[3,2-d]pyrimidine-8-carboxamide]",< 6.00,> 7.00
"CC1(N2CCOCC2)CC=C(c2cc(C(N)=O)c3ncnc(N[C@H]4CCCNC4)c3n2)CC1 (stereo partly drawn) [Example 74, 6-[4-methyl-4-(morpholin-4-yl)cyclohex-1-en-1-yl]-4-{[(3S)-piperidin-3-yl]amino}pyrido[3,2-d]pyrimidine-8-carboxamide]",< 6.00,> 7.00
"NC(=O)c1cc(-c2cnn(CC(F)F)c2)nc2c(N[C@H]3CCCNC3)ncnc12 [Example 81, 6-[1-(2,2-difluoroethyl)-1H-pyrazol-4-yl]-4-{[(3S)-piperidin-3-yl]amino}pyrido[3,2-d]pyrimidine-8-carboxamide]",< 6.00,> 7.00
"NC(=O)c1cc(-c2ccc(OC(F)(F)F)cc2)nc2c(N[C@H]3CCCNC3)ncnc12 [Example 31, 4-[(3S)-piperidin-3-ylamino]-6-[4-(trifluoromethoxy)phenyl]pyrido[3,2-d]pyrimidine-8-carboxamide]",6.00 to 6.30,> 7.00

# Now from value to compound:
pIC50 (HPK1 pSLP76 (Ser376)),pIC50 [1],Structure (SMILES)
> 6.30,> 7.00,"NC(=O)c1cc(-c2ccc(CN3CCO[C@H](C(F)(F)F)C3)cc2)nc2c(N[C@H]3CCCNC3)ncnc12 [Example 57, 4-[(3S)-piperidin-3-ylamino]-6-(4-[[(2S)-2(trifluoromethyl)morpholin-4-yl]methyl]phenyl) pyrido [3,2-d]pyrimidine-8-carboxamide]"
6.00 to 6.30,> 7.00,"NC(=O)c1cc(-c2ccc(CN3CCOC(F)(F)C3)cc2)nc2c(N[C@H]3CCCNC3)ncnc12 [Example 70, 6-[4-[(2,2-difluoromorpholin-4-yl)methyl]phenyl]-4-[(3S)-piperidin-3-ylamino]pyrido[3,2-d]pyrimidine-8-carboxamide]"
> 6.30,> 7.00,"NC(=O)c1cc(-c2ccc(CN3CC4CCC(C3)O4)cc2)nc2c(N[C@H]3CCCNC3)ncnc12 [Example 65, 6-(4-[8-oxa-3-azabicyclo [3.2.1]octan-3-ylmethyl]phenyl)-4-[(3S)-piperidin-3-ylamino]pyrido[3,2-d]pyrimidine-8-carboxamide]"
> 6.30,> 7.00,"CN1CCN(c2ccc(-c3cc(C(N)=O)c4ncnc(N[C@H]5CCCNC5)c4n3)cn2)CC1 [Example 59, 6-[6-(4-methylpiperazin-1-yl)pyridin-3-yl]-4-[(3S)-piperidin-3-ylamino]pyrido[3,2-d]pyrimidine-8-carboxamide]"
> 6.30,> 7.00,"NC(=O)c1cc(-c2ccc(OCC3(O)CC3)cc2)nc2c(N[C@@H]3CNCCC3(F)F)ncnc12 [Example 16, (R)-4-((4,4-difluoropiperidin-3-yl)amino)-6-(4-((1-hydroxycyclopropyl)methoxy)phenyl)pyrido[3,2-d]pyrimidine-8-carboxamide]"
> 6.30,> 7.00,"NC(=O)c1cc(-c2cc(F)c(OCC3(O)CCOCC3)c(F)c2)nc2c(N[C@H]3CCCNC3)ncnc12 [Example 43, (S)-6-(3,5-difluoro-4-((4-hydroxytetrahydro-2H-pyran-4-yl)methoxy)phenyl)-4-(piperidin-3-ylamino)pyrido[3,2-d]pyrimidine-8-carboxamide]"
> 6.30,> 7.00,"C[C@H]1CN(Cc2ccc(-c3cc(C(N)=O)c4ncnc(N[C@H]5CCCNC5)c4n3)cc2)CCO1 [Example 27, 6-(4-[[(2S)-2-methylmorpholin-4-yl]methyl]phenyl)-4-[(3S)-piperidin-3-ylamino]pyrido [3,2-d]pyrimidine-8 carboxamide dihydrochloride]"
> 6.30,> 7.00,"CC(C)(O)COc1ccc(-c2cc(C(N)=O)c3ncnc(N[C@@H]4CNC[C@@H](F)C4)c3n2)c(C#N)c1 [Example 1, 6-(2-cyano-4-(2-hydroxy-2-methylpropoxy)phenyl)-4-(((3S,5S)-5-fluoropiperidin-3-yl)amino)pyrido[3,2-d]pyrimidine-8-carboxamide]"
> 6.30,> 7.00,"CCn1cc(-c2cc(C(N)=O)c3ncnc(N[C@@H]4CNC[C@@H](F)C4)c3n2)c(C)n1 [Example 9, 6-(1-ethyl-3-methyl-1H-pyrazol-4-yl)-4-(((3S,5S)-5-fluoropiperidin-3-yl)amino)pyrido[3,2-d]pyrimidine-8-carboxamide]"
